According to patent US8741934B2, “Inhibitors of ion channels” (Pfizer Limited, priority 2007, dated 2014):

Molecular target: T1, hSCN3A sodium channels (Homo sapiens, UniProt Q9NY46)
T1 construct: expressed in transfected cells
Test: hSCN3A electrophysiology, Ionworks Quattro automated platform (Table C)
Assay type: cell-based
Details: for inhibition at 3 µM: 3 μM compound, read-out: SCN3A % INHIB HTS IWQ 3 μM; for inhibition at 10 µM: 10 μM compound, read-out: SCN3A % INHIB HTS IWQ 10 μM
Description: Human Embryonic Kidney (HEK) cells were transfected with an hSCN3A construct using lipofectamine reagent (Invitrogen), using standard techniques. […] Clones were screened for expression using the whole-cell voltage-clamp technique.
HEK cells stably transfected with hSCN3A were maintained in DMEM medium supplemented with 10% heat-inactivated fetal bovine serum and 400 μg/ml G418 sulfate in an incubator at 37° C. with a humidified atmosphere of 10% CO2. […] For electrophysiological studies, cells were removed from the culture flask by brief trypsinization and replated at low density onto glass cover slips. Cells were typically used for electrophysiological experiments within 24 to 72 h after plating.
Electrophysiological assays were also conducted using the Ionworks Quattro automated electrophysiological platform (Molecular Devices Corp) (Table C). Intracellular and extracellular solutions were as described above with the following changes, 100 μg/ml amphotericin was added to the intracellular solution to perforate the membrane and allow electrical access to the cells. hSCN3A cells were grown and harvested as for PatchXpress and cells were resuspended in extracellular solution at a concentration of 3-4×10^6 cells/ml. The onboard liquid handling facility of the Ionworks Quattro was used for dispensing cells and application of test compounds. A voltage protocol was then applied that comprised of a voltage step to fully inactivate the sodium channels, followed by a brief hyperpolarized recovery period to allow partial recovery from inactivation for unblocked sodium channels, followed by a test depolarized voltage step to assess magnitude of inhibition by test compound. Compound effect was determined based on current amplitude difference between the pre-compound addition and post-compound addition scans.

T1 sequence (Q9NY46 whole entry): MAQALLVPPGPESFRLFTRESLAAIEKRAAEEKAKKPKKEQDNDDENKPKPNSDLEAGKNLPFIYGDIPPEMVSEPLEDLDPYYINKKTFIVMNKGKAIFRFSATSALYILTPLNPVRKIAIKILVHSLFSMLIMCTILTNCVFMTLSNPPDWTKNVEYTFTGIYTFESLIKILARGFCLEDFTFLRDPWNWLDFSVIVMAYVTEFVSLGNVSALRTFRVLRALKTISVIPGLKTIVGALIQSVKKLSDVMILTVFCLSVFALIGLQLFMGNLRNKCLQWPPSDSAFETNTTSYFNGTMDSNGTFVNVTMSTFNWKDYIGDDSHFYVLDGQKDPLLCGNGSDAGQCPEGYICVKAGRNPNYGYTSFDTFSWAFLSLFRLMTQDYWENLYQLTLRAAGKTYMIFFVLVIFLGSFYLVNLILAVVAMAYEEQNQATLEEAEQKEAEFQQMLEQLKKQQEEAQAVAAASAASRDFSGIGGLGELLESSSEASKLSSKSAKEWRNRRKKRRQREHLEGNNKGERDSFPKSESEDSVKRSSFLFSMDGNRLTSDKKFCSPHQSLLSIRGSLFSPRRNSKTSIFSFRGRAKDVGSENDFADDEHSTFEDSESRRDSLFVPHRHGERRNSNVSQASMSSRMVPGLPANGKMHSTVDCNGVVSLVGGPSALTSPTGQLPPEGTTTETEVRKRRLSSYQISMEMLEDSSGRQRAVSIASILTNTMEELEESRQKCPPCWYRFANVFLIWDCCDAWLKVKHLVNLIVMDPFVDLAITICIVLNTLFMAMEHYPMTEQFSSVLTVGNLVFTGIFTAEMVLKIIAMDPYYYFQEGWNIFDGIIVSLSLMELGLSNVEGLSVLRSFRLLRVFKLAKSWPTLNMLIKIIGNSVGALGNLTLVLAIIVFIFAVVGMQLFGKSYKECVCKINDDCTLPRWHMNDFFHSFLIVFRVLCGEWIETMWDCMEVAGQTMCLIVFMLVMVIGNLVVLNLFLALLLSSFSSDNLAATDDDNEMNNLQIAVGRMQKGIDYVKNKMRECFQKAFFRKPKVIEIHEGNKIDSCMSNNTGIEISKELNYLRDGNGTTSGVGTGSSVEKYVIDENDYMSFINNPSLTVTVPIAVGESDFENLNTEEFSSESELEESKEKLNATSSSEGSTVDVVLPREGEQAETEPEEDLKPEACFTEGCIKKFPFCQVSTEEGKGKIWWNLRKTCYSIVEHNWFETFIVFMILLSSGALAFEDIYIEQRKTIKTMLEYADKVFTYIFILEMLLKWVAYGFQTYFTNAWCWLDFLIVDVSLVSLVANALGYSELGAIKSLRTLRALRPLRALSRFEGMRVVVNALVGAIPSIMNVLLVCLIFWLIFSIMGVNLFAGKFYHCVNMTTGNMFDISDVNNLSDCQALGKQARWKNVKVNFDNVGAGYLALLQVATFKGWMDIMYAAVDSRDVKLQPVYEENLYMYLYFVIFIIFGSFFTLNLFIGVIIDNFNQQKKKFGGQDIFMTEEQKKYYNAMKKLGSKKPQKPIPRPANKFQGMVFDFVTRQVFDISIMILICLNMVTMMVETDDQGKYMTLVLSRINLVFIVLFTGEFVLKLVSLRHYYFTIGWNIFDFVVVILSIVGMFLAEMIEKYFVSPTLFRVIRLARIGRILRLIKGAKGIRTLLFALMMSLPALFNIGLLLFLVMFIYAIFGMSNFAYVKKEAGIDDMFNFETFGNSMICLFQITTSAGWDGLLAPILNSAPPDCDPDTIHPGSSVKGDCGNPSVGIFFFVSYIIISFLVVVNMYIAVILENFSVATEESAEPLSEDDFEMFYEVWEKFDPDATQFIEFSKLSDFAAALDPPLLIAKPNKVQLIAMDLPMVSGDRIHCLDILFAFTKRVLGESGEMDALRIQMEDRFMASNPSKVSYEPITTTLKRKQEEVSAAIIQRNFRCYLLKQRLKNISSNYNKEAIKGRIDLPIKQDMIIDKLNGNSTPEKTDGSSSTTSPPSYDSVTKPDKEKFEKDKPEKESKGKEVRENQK

## CC[C@H](NC(=O)c1ccc(S(=O)(=O)Nc2nccs2)cc1)c1ccccc1 [Example 145, N-[(1S)-1-phenylpropyl]-4-[(1,3-thiazol-2-ylamino)sulfonyl]benzamide]
  inhibition at 3 µM: 2.05%
  inhibition at 10 µM: 19.4%

## CCOc1ccccc1CNC(=O)c1ccc(S(=O)(=O)Nc2nccs2)cc1 [Example 89, N-(2-ethoxybenzyl)-4-[(1,3-thiazol-2-ylamino)sulfonyl]benzamide]
  inhibition at 3 µM: 14%
  inhibition at 10 µM: 48.2%

## Cc1ncccc1OCC1CN(C(=O)c2ccc(S(=O)(=O)Nc3nccs3)cc2)CCO1 (stereo not drawn) [Example 243, 4-[(2-{[(2-Methylpyridin-3-yl)oxy]methyl}morpholin-4-yl)carbonyl]-N-1,3-thiazol-2-yl-benzenesulfonamide]
  inhibition at 3 µM: 15.3%
  inhibition at 10 µM: 14.7%

## O=C(NC(CO)c1ccccc1)c1ccc(S(=O)(=O)Nc2nccs2)cc1 (stereo not drawn) [Example 57, N-(2-hydroxy-1-phenylethyl)-4-[(1,3-thiazol-2-ylamino)sulfonyl]benzamide]
  inhibition at 3 µM: 25.2%
  inhibition at 10 µM: 47.8%

## CC(NC(=O)c1ccc(S(=O)(=O)Nc2nccs2)cc1)c1ccccc1Cl (stereo not drawn) [Example 143, N-[1-(2-chlorophenyl)ethyl]-4-[(1,3-thiazol-2-ylamino)sulfonyl]benzamide]
  inhibition at 3 µM: 16%
  inhibition at 10 µM: 32%

## O=C(N[C@@H]1COC[C@@H]1c1ccc(F)cc1)c1ccc(S(=O)(=O)Nc2nccs2)cc1 [Example 179, N-[(3S,4R)-4-(4-fluorophenyl)tetrahydrofuran-3-yl]-4-[(1,3-thiazol-2-ylamino)sulfonyl]benzamide]
  inhibition at 3 µM: 9.95%
  inhibition at 10 µM: 15.9%

## O=C(NCc1ccccc1)c1ccc(S(=O)(=O)Nc2nccs2)cc1 [Example 171, N-benzyl-4-[(1,3-thiazol-2-ylamino)sulfonyl]benzamide]
  inhibition at 3 µM: 39.5%
  inhibition at 10 µM: 52.8%

## COc1cccc(C2CCCCCN2C(=O)c2ccc(S(=O)(=O)Nc3nccs3)cc2)c1 (stereo not drawn) [Example 275, 4-{[2-(3-Methoxyphenyl)azepan-1-yl]carbonyl}-N-1,3-thiazol-2-yl-benzenesulfonamide]
  inhibition at 3 µM: 9.93%
  inhibition at 10 µM: -0.2%

## O=C(c1ccc(S(=O)(=O)Nc2nccs2)cc1)N1CCCO[C@H]1Cc1ccccc1 [Example 214, 4-{[(2S)-2-benzyl-1,3-oxazinan-3-yl]carbonyl}-N-1,3-thiazol-2-yl-benzenesulfonamide]
  inhibition at 3 µM: 9.25%
  inhibition at 10 µM: 4.51%

## O=C(NCc1cc(F)ccc1C(F)(F)F)c1ccc(S(=O)(=O)Nc2nccs2)cc1 [Example 81, N-[5-fluoro-2-(trifluoromethyl)benzyl]-4-[(1,3-thiazol-2-ylamino)sulfonyl]benzamide]
  inhibition at 3 µM: 34.7%
  inhibition at 10 µM: 65.7%

## CC(CNC(=O)c1ccc(S(=O)(=O)Nc2nccs2)cc1)Oc1ccccc1 (stereo not drawn) [Example 161, N-(2-phenoxypropyl)-4-[(1,3-thiazol-2-ylamino)sulfonyl]benzamide]
  inhibition at 3 µM: 30.3%
  inhibition at 10 µM: 32.4%

## O=C(NC1(Cc2ccccc2Cl)CC1)c1ccc(S(=O)(=O)Nc2nccs2)cc1 [Example 129, N-[1-(2-chlorobenzyl)cyclopropyl]-4-[(1,3-thiazol-2-ylamino)sulfonyl]benzamide]
  inhibition at 3 µM: 13.6%
  inhibition at 10 µM: 24.2%

## O=C(NCc1cccc(Cl)c1)c1ccc(S(=O)(=O)Nc2nccs2)cc1 [Example 152, N-(3-chlorobenzyl)-4-[(1,3-thiazol-2-ylamino)sulfonyl]benzamide]
  inhibition at 3 µM: 42.2%
  inhibition at 10 µM: 56.3%

## COc1ccc(C2(NC(=O)c3ccc(S(=O)(=O)Nc4nccs4)cc3)CC2)cc1 [Example 160, N-[1-(4-methoxyphenyl)cyclopropyl]-4-[(1,3-thiazol-2-ylamino)sulfonyl]benzamide]
  inhibition at 3 µM: 15.6%
  inhibition at 10 µM: 14.8%

## Cc1ccc(C)c(C2CCCN2C(=O)c2ccc(S(=O)(=O)Nc3nccs3)cc2)c1 (stereo not drawn) [Example 202, 4-{[2-(2,5-Dimethylphenyl)pyrrolidin-1-yl]carbonyl}-N-1,3-thiazol-2-yl-benzenesulfonamide]
  inhibition at 3 µM: 15.8%
  inhibition at 10 µM: 13.7%

## O=C(c1ccc(S(=O)(=O)Nc2nccs2)cc1)N1CCOCC(O)(Cc2ccccc2)C1 (stereo not drawn) [Example 258, 4-[(6-Benzyl-6-hydroxy-1,4-oxazepan-4-yl)carbonyl]-N-1,3-thiazol-2-yl-benzenesulfonamide]
  inhibition at 3 µM: 0.17%
  inhibition at 10 µM: 12%

## O=C(NCCOc1ccccc1)c1ccc(S(=O)(=O)Nc2nccs2)cc1 [Example 168, N-(2-phenoxyethyl)-4-[(1,3-thiazol-2-ylamino)sulfonyl]benzamide]
  inhibition at 3 µM: 31.4%
  inhibition at 10 µM: 39.3%

## COc1ccc(CCNC(=O)c2ccc(S(=O)(=O)Nc3nccs3)cc2)cc1 [Example 169, N-[2-(4-methoxyphenyl)ethyl]-4-[(1,3-thiazol-2-ylamino)sulfonyl]benzamide]
  inhibition at 3 µM: 35.3%
  inhibition at 10 µM: 27.3%

## CC(CNC(=O)c1ccc(S(=O)(=O)Nc2nccs2)cc1)c1ccccc1 (stereo not drawn) [Example 155, N-(2-phenylpropyl)-4-[(1,3-thiazol-2-ylamino)sulfonyl]benzamide]
  inhibition at 3 µM: 30.1%
  inhibition at 10 µM: 40.8%

## O=C(NCc1cc(F)ccc1F)c1ccc(S(=O)(=O)Nc2nccs2)cc1 [Example 87, N-(2,5-difluorobenzyl)-4-[(1,3-thiazol-2-ylamino)sulfonyl]benzamide]
  inhibition at 3 µM: 36.9%
  inhibition at 10 µM: 46.2%

## CC(C)(NC(=O)c1ccc(S(=O)(=O)Nc2nccs2)cc1)c1cc(F)cc(F)c1 [Example 141, N-[1-(3,5-difluorophenyl)-1-methylethyl]-4-[(1,3-thiazol-2-ylamino)sulfonyl]benzamide]
  inhibition at 3 µM: 6.82%
  inhibition at 10 µM: 25%

## O=C(N[C@@H](CO)Cc1ccccc1)c1ccc(S(=O)(=O)Nc2nccs2)cc1 [Example 185, N-[(1R)-1-benzyl-2-hydroxyethyl]-4-[(1,3-thiazol-2-ylamino)sulfonyl]benzamide]
  inhibition at 3 µM: 20.9%
  inhibition at 10 µM: 20.8%

## O=C(c1ccc(S(=O)(=O)Nc2nccs2)cc1)N1CCC(COCC2CC2)C1 (stereo not drawn) [Example 269, 4-({3-[(Cyclopropylmethoxy)methyl]pyrrolidin-1-yl}carbonyl)-N-1,3-thiazol-2-yl-benzenesulfonamide]
  inhibition at 3 µM: 0.37%
  inhibition at 10 µM: 16.5%

## CC[C@@H](NC(=O)c1ccc(S(=O)(=O)Nc2nccs2)cc1)c1ccccc1 [Example 150, N-[(1R)-1-phenylpropyl]-4-[(1,3-thiazol-2-ylamino)sulfonyl]benzamide]
  inhibition at 3 µM: -7.12%
  inhibition at 10 µM: 22.6%

## COc1ccc(OC2CCCN(C(=O)c3ccc(S(=O)(=O)Nc4nccs4)cc3)C2)cc1 (stereo not drawn) [Example 203, 4-{[3-(4-Methoxyphenoxy)piperidin-1-yl]carbonyl}-N-1,3-thiazol-2-yl-benzenesulfonamide]
  inhibition at 3 µM: 13.1%
  inhibition at 10 µM: 17.7%

## O=C(NC(c1c(F)cccc1F)C1CC1)c1ccc(S(=O)(=O)Nc2nccs2)cc1 (stereo not drawn) [Example 140, N-[cyclopropyl(2,6-difluorophenyl)methyl]-4-[(1,3-thiazol-2-ylamino)sulfonyl]benzamide]
  inhibition at 3 µM: 2.34%
  inhibition at 10 µM: 18.9%

## COc1ccccc1CC1(NC(=O)c2ccc(S(=O)(=O)Nc3nccs3)cc2)CC1 [Example 157, N-[1-(2-methoxybenzyl)cyclopropyl]-4-[(1,3-thiazol-2-ylamino)sulfonyl]benzamide]
  inhibition at 3 µM: 11.3%
  inhibition at 10 µM: 15.3%

## COc1ccc(CC2CCCN2C(=O)c2ccc(S(=O)(=O)Nc3nccs3)cc2)cc1 (stereo not drawn) [Example 206, 4-{[2-(4-Methoxybenzyl)pyrrolidin-1-yl]carbonyl}-N-1,3-thiazol-2-yl-benzenesulfonamide]
  inhibition at 3 µM: 4.17%
  inhibition at 10 µM: 16.7%

## O=C(c1ccc(S(=O)(=O)Nc2nccs2)cc1)N1CCCC1c1ccccc1Cl (stereo not drawn) [Example 215, 4-{[2-(2-Chlorophenyl)pyrrolidin-1-yl]carbonyl}-N-1,3-thiazol-2-yl-benzenesulfonamide]
  inhibition at 3 µM: 30.5%
  inhibition at 10 µM: 51.9%
Emax of dose-response curve, inactivated state
  SCN3A INHIB INACT DRC EP IWQ EMAX: 64.7
read-out: SCN3A IWQ IC-50
  IC50: 8.41 µM

## CC(Cc1ccc(F)cc1)NC(=O)c1ccc(S(=O)(=O)Nc2nccs2)cc1 (stereo not drawn) [Example 149, N-[2-(4-fluorophenyl)-1-methylethyl]-4-[(1,3-thiazol-2-ylamino)sulfonyl]benzamide]
  inhibition at 3 µM: 12.5%
  inhibition at 10 µM: 14.6%

## O=C(NCc1ccccc1OC(F)F)c1ccc(S(=O)(=O)Nc2nccs2)cc1 [Example 66, N-[2-(difluoromethoxy)benzyl]-4-[(1,3-thiazol-2-ylamino)sulfonyl]benzamide]
  inhibition at 3 µM: 16.4%
  inhibition at 10 µM: 34.4%

## O=C(c1ccc(S(=O)(=O)Nc2nccs2)cc1)N1CCCC(COc2ccc(F)cc2)C1 (stereo not drawn) [Example 264, 4-({3-[(4-Fluorophenoxy)methyl]piperidin-1-yl}carbonyl)-N-1,3-thiazol-2-yl-benzenesulfonamide]
  inhibition at 3 µM: 16.9%
  inhibition at 10 µM: 14.8%
